Here are results for two compounds from publication PMC3978654, “Surface plasmon resonance using the catalytic domain of soluble guanylate cyclase allows the detection of enzyme activators^” (Bioorganic & Medicinal Chemistry Letters, 2014).

The target in assay [1] is T1, soluble guanylate cyclase α1β1 (sGC) (Homo sapiens, UniProt Q02108+Q02153).
T1 construct: gene GUCY1B1; α1β1 catalytic domain (sGCcat); with sGC α1 subunit (GUCY1A1)
T1 sequence (Q02153 408-619 limits assumed): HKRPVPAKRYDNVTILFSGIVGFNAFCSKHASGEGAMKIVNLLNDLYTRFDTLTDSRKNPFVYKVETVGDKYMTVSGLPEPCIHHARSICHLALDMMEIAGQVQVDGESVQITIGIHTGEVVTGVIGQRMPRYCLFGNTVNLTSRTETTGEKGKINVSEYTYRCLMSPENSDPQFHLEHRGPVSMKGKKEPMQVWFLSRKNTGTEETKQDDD
T1 sequence (Q02108 467-690): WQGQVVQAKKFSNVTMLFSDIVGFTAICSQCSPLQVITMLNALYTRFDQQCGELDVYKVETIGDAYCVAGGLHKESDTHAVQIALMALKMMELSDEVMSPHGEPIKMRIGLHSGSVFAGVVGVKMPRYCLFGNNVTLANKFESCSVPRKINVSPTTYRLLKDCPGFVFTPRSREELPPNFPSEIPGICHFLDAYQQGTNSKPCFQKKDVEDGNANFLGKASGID
Description: SPR (Biacore T200), concentration series. It is filed as binding.

The target in assay [2] is T2, soluble guanylate cyclase α1β1 (sGC) (Homo sapiens, UniProt Q02153).
T2 construct: gene GUCY1B1; full length sGC; with sGC α1 subunit (GUCY1A1)
T2 sequence (Q02153 1-619): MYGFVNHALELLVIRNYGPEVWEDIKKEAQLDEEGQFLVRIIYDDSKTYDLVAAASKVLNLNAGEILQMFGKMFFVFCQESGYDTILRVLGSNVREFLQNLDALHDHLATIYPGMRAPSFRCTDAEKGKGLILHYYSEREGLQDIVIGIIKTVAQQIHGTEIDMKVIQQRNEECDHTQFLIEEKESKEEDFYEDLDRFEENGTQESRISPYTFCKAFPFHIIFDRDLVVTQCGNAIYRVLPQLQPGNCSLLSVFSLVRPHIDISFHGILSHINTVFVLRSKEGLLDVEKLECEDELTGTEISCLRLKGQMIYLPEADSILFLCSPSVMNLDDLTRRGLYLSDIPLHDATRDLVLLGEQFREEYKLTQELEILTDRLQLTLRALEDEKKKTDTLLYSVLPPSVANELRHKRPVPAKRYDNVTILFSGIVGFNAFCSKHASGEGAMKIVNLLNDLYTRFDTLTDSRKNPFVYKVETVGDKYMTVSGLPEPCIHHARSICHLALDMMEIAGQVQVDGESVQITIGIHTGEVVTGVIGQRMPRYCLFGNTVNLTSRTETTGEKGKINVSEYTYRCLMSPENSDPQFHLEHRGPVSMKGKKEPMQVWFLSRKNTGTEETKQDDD
T2 sequence (Q02108 1-690 partner): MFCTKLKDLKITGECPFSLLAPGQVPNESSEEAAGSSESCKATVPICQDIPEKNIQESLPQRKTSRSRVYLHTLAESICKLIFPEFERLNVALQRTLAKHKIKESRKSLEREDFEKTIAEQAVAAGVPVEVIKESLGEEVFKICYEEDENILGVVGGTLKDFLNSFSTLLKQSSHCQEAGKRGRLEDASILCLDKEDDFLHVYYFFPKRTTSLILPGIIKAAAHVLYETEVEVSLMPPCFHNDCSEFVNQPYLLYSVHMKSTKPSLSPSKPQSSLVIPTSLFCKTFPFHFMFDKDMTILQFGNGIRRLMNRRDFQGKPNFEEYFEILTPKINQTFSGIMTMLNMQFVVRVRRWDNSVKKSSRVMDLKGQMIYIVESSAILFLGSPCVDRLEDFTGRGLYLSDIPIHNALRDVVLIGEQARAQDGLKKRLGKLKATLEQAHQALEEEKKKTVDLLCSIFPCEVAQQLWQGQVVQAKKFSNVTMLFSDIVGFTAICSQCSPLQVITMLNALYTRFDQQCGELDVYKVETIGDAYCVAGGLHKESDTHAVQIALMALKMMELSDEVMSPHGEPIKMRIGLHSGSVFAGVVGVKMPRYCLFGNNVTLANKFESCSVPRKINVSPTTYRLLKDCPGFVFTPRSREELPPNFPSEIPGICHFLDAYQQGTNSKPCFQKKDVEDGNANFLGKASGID
Description: SPR (Biacore T200) at […]. The class given is binding.

On to `Nc1nc2c(ncn2[C@@H]2O[C@H](COP(=O)(O)OP(=O)(O)OP(=O)(O)O)[C@@H](O)[C@H]2O)c(=O)[nH]1` [GTP], for which binding in assay [1] was put at a Kd of 326 µM.
Consider `O=C(O)CCCCN(CCc1ccccc1OCc1ccc(CCc2ccccc2)cc1)Cc1ccc(C(=O)O)cc1` [compound 1, BAY 58-2667], for which the “SPR (Biacore T200) at 100 μM” value in assay [2] was “showed strong binding to the full length sGC and only non-specific binding to sGCcat”.
